Experimental data taken from BigSolDB 2.1.

CC(=O)c1cccc([N+](=O)[O-])c1
solubility (mole fraction)
Conditions	in acetone	in acetonitrile	in cyclohexane	in ethanol	in ethyl acetate	in isopropanol	in methanol	in n-propanol	in toluene
278.15 K	0.1	0.0717	–	0.00487	0.0782	0.00433	0.00642	0.00388	0.0545
283.15 K	0.121	0.0892	0.00124	0.00619	0.0906	0.00517	0.00759	0.00487	0.0657
288.15 K	0.146	0.116	0.00159	0.00785	0.109	0.00635	0.00928	0.00609	0.082
293.15 K	0.179	0.147	0.00204	0.00993	0.132	0.00778	0.0117	0.00763	0.103
298.15 K	0.218	0.185	0.0026	0.0125	0.159	0.00944	0.0146	0.00975	0.128
303.15 K	0.264	0.233	0.00333	0.0158	0.191	0.0117	0.0183	0.0124	0.161
308.15 K	0.319	0.292	0.0043	0.0204	0.23	0.0145	0.0231	0.0157	0.2
313.15 K	0.384	0.367	0.0056	0.0262	0.277	0.018	0.0299	0.0204	0.254
318.15 K	0.458	0.454	0.00743	0.0355	0.341	0.023	0.0389	0.0265	0.328

CC(=O)c1ccc([N+](=O)[O-])cc1
solubility (mole fraction)
Conditions	in acetone	in acetonitrile	in cyclohexane	in ethanol	in ethyl acetate	in isopropanol	in methanol	in n-propanol	in toluene
278.15 K	0.134	0.103	–	0.00667	0.101	0.00349	0.00839	0.00481	0.0674
283.15 K	0.158	0.123	0.00154	0.00821	0.117	0.00455	0.0102	0.00608	0.0806
288.15 K	0.185	0.146	0.00203	0.01	0.137	0.00577	0.0125	0.00762	0.0959
293.15 K	0.216	0.174	0.00259	0.0123	0.161	0.00758	0.0155	0.00968	0.114
298.15 K	0.25	0.206	0.00332	0.0155	0.188	0.00978	0.0187	0.0121	0.137
303.15 K	0.287	0.244	0.00423	0.019	0.22	0.0128	0.0231	0.0154	0.164
308.15 K	0.33	0.287	0.00542	0.0236	0.257	0.0169	0.0283	0.0194	0.195
313.15 K	0.376	0.336	0.00694	0.0293	0.3	0.0223	0.0343	0.0246	0.232
318.15 K	0.428	0.389	0.0089	0.0365	0.345	0.0296	0.0421	0.0313	0.275
